Experimental data taken from patent US20190054097A1, “COMPOSITIONS TARGETING SENESCENT CELLS AND THE USES THEREOF” (BioVentures, LLC, priority 2016, published 2019).
Read-outs that look alike come from different tables or passages of the source.

What was measured:
[1] = test system: senescent cells; assay: Cisplatin-induced peripheral neuropathy (CIPN) in p16-3MR transgenic mice, Von Frey assay and Hot Plate Analgesia Meter; type: in vivo; details: GCV 25 mg/kg/day or ABT263 50 mg/kg/day i.p., 5 days per cycle, 2 cycles, FIG. 8-11
Procedure: CIPN was induced in young adult male and female p16-3MR mice by intraperitoneal (i.p.) injection of cisplatin (Lake Zurich, Ill., USA) at 2.3 mg/kg/d for 5 days per cycle for 2 cycles with an interval of 5 days between the cycles. The induction of CIPN was measured by analyzing the mechanical sensitivity using the Von Frey assay the day before Cisplatin treatment and on various day after Cisplatin treatment. N=5-6 mice per group.
Mice were treated as described in FIG. 8. The induction of CIPN was measured by analyzing the sensitivity to thermal allodynia using the Hot Plate Analgesia Meter on various day after Cisplatin treatment. N=5-6 mice per group.
To determine the effect of senescent cells on the induction of CIPN, cisplatin-treated mice were administered with vehicle, ganciclovir (GCV) at 25 mg/kg/day for 5 days per cycle for 2 cycles with an interval of 17 days between the cycles, or ABT263 at 50 mg/kg/day for 5 days per cycle for 2 cycles with an interval of 17 days between the cycles by i.p. injection at the indicated times after cisplatin treatment. […] The induction of CIPN was measured by analyzing the mechanical sensitivity using the Von Frey assay (FIG. 8 and FIG. 9) and by analyzing the sensitivity to thermal allodynia using the Hot Plate Analgesia Meter (FIG. 10 and FIG. 11) the day before Cisplatin treatment and on various day after Cisplatin treatment.

[2] = test system: NCI-H146 cancer cells; assay: Cancer cell viability by MTS, 72 hours; type: cell-based
Procedure: (§1) RS4; 11 and NCI-H146 cancer cells were incubated with vehicle or increasing concentrations of compounds of Formula (I) and Formula (II). At 72 hours post-treatment cell viability was measured by MTS and EC50 was calculated as a percentage of control cells treated with vehicle. Table 1 depicts the EC50 values of compounds of Formula (I) and Formula (II) against RS4; 11 and NCI-H146.

[3] = test system: RS4; 11 cancer cells; assay: Cancer cell viability by MTS, 72 hours; type: cell-based; details: 11 cells
Procedure: as §1

[4] = test system: IR-induced senescent WI38 cells (IR-SC); assay: Viability of IR-induced senescent WI38 cells, PI staining and flow cytometry, 72 hours; type: cell-based; details: for EC50: IR-induced senescent WI38 cells, 72 hours, viable PI- cells as percentage of vehicle control; for Ratio NSC/SC: ratio of WI38 EC50 in normal cells to EC50 in IR-induced senescent cells
Procedure: (§2) Normal WI38 (NSC) and IR-induced senescent WI38 cells (IR-SC) were incubated with vehicle or increasing concentrations of compounds of Formula (I) or Formula (II) for 72 hours. The cells were digested with 0.25% trypsin and 1 mM EDTA, and harvested in PBS containing 2% FBS. After incubation with propidium iodide (PI, 100 ng/ml) in PBS at room temperature for 1 minute, cells were centrifuged at 1,200 rpm for 6 minutes to remove PI and then resuspended in PBS containing 2% FBS for analysis using a flow cytometer. Viable cells (PI− cells) were analyzed by flow cytometry at a constant flow rate to count the number of cells and calculated as a percentage of control cells treated with vehicle. Table 1 depicts the EC50 values of the compounds of Formula (I) and compounds of Formula (II) against normal WI38 and IR-induced senescent WI38.

[5] = test system: Normal WI38 (NSC); assay: Viability of normal WI38 cells, PI staining and flow cytometry, 72 hours; type: cell-based
Procedure: as §2

[6] = Homo sapiens, WI-38, viable PI- cells as percentage of vehicle control
[7] = viable PI- cells as percentage of vehicle control

For `Nc1nc(O)c2ncn(COC(CO)CO)c2n1` [GCV, ganciclovir], the “Reversal of cisplatin-induced peripheral neuropathy” value [1] was “reversed cisplatin-induced peripheral neuropathy (CIPN)”.

`CC1(C)CCC(c2ccc(Cl)cc2)=C(CN2CCN(c3ccc(C(=O)NS(=O)(=O)c4ccc(N[C@H](CCN5CCN(C(=O)CCCn6cc(COCCOCCNc7cccc8c7C(=O)N(C7CCC(=O)NC7=O)C8=O)nn6)CC5)CSc5ccccc5)c(S(=O)(=O)C(F)(F)F)c4)cc3)CC2)C1` (stereo partly drawn) [PZ-15227, 4-(4-((4′-chloro-4,4-dimethyl-3,4,5,6-tetrahydro-[1,1′-biphenyl]-2-yl)methyl)piperazin-1-yl)-N-((4-(((2R)-4-(4-(4-(4-((2-(2-((2-(2,6-dioxopiperidin-3-yl)-1,3-dioxoisoindolin-4-yl)amino)ethoxy)ethoxy)methyl)-1H-1,2,3-triazol-1-yl)butanoyl)piperazin-1-yl)-1-(phenylthio)butan-2-yl)amino)-3-((trifluoromethyl)sulfonyl)phenyl)sulfonyl)benzamide] gave an EC50 ([2]; Homo sapiens) of 68.9 nM, an EC50 ([3]; Homo sapiens) of 114 nM and an EC50 ([4]; Homo sapiens, WI-38) of 108 nM. For the same molecule, the “Ratio NSC/SC” value [4] was over 92 and the EC50 [5, 6] was over 10000 nM.

For `CC(C)(C)OC(=O)N1CCN(CC#Cc2ccc(OCCCc3sc(N4CCc5cccc(C(=O)Nc6nc7ccccc7s6)c5C4)nc3C(=O)O)c(F)c2)CC1` [XZ-13861], the “Selective inhibition of IR-SC WI38 cells versus normal WI38 cells” value ([4]; FIG. 2A, FIG. 2B, dose dependent) was “selectively inhibits IR-SC WI38 cells but not normal WI38 cells in a dose-dependent manner”, the EC50 [4] was 3120 nM and the EC50 [5, 7] was 32800 nM.

For `Cc1ncsc1-c1ccc(CNC(=O)[C@@H]2C[C@@H](O)CN2C(=O)[C@@H](NC(=O)COCCOCCOCc2cn(CCCC(=O)N3CCN(CC#Cc4ccc(OCCCc5sc(N6CCc7cccc(C(=O)Nc8nc9ccccc9s8)c7C6)nc5C(=O)O)c(F)c4)CC3)nn2)C(C)(C)C)cc1` [XZ-14455, 2-(8-(benzo[d]thiazol-2-ylcarbamoyl)-3,4-dihydroisoquinolin-2(1H)-yl)-5-(3-(2-fluoro-4-(3-(4-(4-(4-((S)-12-((2S,4R)-4-hydroxy-2-((4-(4-methylthiazol-5-14)benzyl)carbamoyl)pyrrolidine-1-carbonyl)-13,13-dimethyl-10-oxo-2,5,8-trioxa-11-azatetradecyl)-1H-1,2,3-triazol-1-yl)butanoyl)piperazin-1-yl)prop-1-yn-1-yl)phenoxy)propyl)thiazole-4-carboxylic acid], the EC50 [2] was over 2000 nM, the EC50 [3] was over 2000 nM and the EC50 [4] was 1470 nM. For the same molecule, the “Ratio NSC/SC” value [4] was 3.40 and the EC50 [5, 7] was 5000 nM.

For `CC1(C)CCC(c2ccc(Cl)cc2)=C(CN2CCN(c3ccc(C(=O)NS(=O)(=O)c4ccc(N[C@H](CCN5CCN(C(=O)COCCOCCOCCNc6cccc7c6C(=O)N(C6CCC(=O)NC6=O)C7=O)CC5)CSc5ccccc5)c(S(=O)(=O)C(F)(F)F)c4)cc3)CC2)C1` (stereo partly drawn) [XZ-14510, 4-(4-((4′-chloro-4,4-dimethyl-3,4,5,6-tetrahydro-[1,1′-biphenyl]-2-yl)methyl)piperazin-1-yl)-N-((4-(((2R)-4-(4-(2-(2-(2-(2-((2-(2,6-dioxopiperidin-3-yl)-1,3-dioxoisoindolin-4-yl)amino)ethoxy)ethoxy)ethoxy)acetyl)piperazin-1-yl)-1-(phenylthio)butan-2-yl)amino)-3-((trifluoromethyl)sulfonyl)phenyl)sulfonyl)benzamide], the “Ratio NSC/SC” value [4] was over 56.

For `CC1(C)CCC(CN2CCN(c3ccc(C(=O)NS(=O)(=O)c4ccc(NCC5CCN(C(=O)CCCn6cc(COCCOCCOCCNc7cccc8c7C(=O)N(C7CCC(=O)NC7=O)C8=O)nn6)CC5)c([N+](=O)[O-])c4)c(Oc4cnc5[nH]ccc5c4)c3)CC2)=C(c2ccc(Cl)cc2)C1` (stereo not shown) [XZ-14523, 2-((1H-pyrrolo[2,3-b]pyridin-5-yl)oxy)-4-(4-((4′-chloro-5,5-dimethyl-3,4,5,6-tetrahydro-[1,1′-biphenyl]-2-yl)methyl)piperazin-1-yl)-N-((4-(((1-(4-(4-((2-(2-(2-((2-(2,6-dioxopiperidin-3-yl)-1,3-dioxoisoindolin-4-14)amino)ethoxy)ethoxy)ethoxy)methyl)-1H-1,2,3-triazol-1-yl)butanoyl)piperidin-4-yl)methyl)amino)-3-nitrophenyl)sulfonyl)benzamide], the EC50 [2] was 1260 nM, the EC50 [3] was 161 nM and the EC50 [4] was over 10000 nM. For the same molecule, the EC50 [5, 7] was over 10000 nM.

`CC1(C)CCC(c2ccc(Cl)cc2)=C(CN2CCN(c3ccc(C(=O)NS(=O)(=O)c4ccc(N[C@H](CCN5CCN(CCOCCOCCOCCNc6cccc7c6C(=O)N(C6CCC(=O)NC6=O)C7=O)CC5)CSc5ccccc5)c(S(=O)(=O)C(F)(F)F)c4)cc3)CC2)C1` (stereo partly drawn) [XZ-15418, 4-(4-((4′-chloro-4,4-dimethyl-3,4,5,6-tetrahydro-[1,1′-biphenyl]-2-yl)methyl)piperazin-1-yl)-N-((4-(((2R)-4-(4-(2-(2-(2-(2-((2-(2,6-dioxopiperidin-3-yl)-1,3-dioxoisoindolin-4-yl)amino)ethoxy)ethoxy)ethoxy)ethyl)piperazin-1-yl)-1-(phenylthio)butan-2-yl)amino)-3-((trifluoromethyl)sulfonyl)phenyl)sulfonyl)benzamide] gave an EC50 ([3]; Homo sapiens) of 12.3 nM, an EC50 ([4]; Homo sapiens, WI-38) of 172 nM and an EC50 [5, 6] of over 10000 nM.
